From patent US20230061432A1, “NEW TECHNOLOGY TO CONJUGATE THE TACCALONOLIDE MICROTUBULE STABILIZERS WITH LINKERS/PAYLOADS” (priority 2019, published 2023)

System: not given
Assay: not given
Conditions: unprotected form; Mottram et al. 2006; cited from earlier work

Row | Structure (SMILES) | pKa
1 | O=C1OC2(c3ccc(O)cc3Oc3cc(O)ccc32)c2ccccc21 [fluorescein] | 6.5
2 | O=C(O)c1ccccc1-c1c2cc(F)c(=O)cc-2oc2cc(O)c(F)cc12 [Oregon Green, Oregon green] | 4.8

System: HeLa cells
Assay: sulforhodamine B (SRB) antiproliferative assay
Format: cell-based, human
Conditions: Homo sapiens, HeLa; Table 5; read-out: GI50 in HeLa
Excerpt: HCC1806 (CRL-2335) and HCC1937 (CRL-2336) human triple-negative breast cancer cells, HeLa (CCL-2) cervical cancer cells and SK-OV-3 (HTB-77) ovarian cancer cells were obtained from ATCC (Manassas, Va.) and validated by STR profiling (Genetica). SK-OV-3 cells stably overexpressing Pgp by adenoviral-mediated expression of MDR1 were obtained from Dr. Susan Kane and subcloned by limiting dilution to isolate the single-cell clones utilized in these studies as SK-OV-3-MDR-1-6/6 (Risinger, A. L. et al. (2008) Cancer Res. 68, 8881-8888). A single-cell clone from transfection of HeLa cells with βIII-tubulin, designated wild type βIII, was constructed and obtained from Dr. Richard Luduena (Risinger, A. L. et al. (2008) Cancer Res. 68, 8881-8888). HCC1806 and HCC1937 cells were cultured in RPMI 1640 media (Corning) with 10% FBS (Cellgro) and 50 μg/mL gentamicin (Gibco). HeLa, […] expressing HeLa, SK-OV-3 and SK-OV-3/MDR-1-6/6 cells were grown in BME media with Earle's salts (Gibco) with 10% FBS, 1× final 1% GlutaMax™ Supplement (Gibco), and […] gentamicin. The use of HeLa cells allows for the direct comparison of the in vitro potency as compared to other compounds of this class, which have been predominantly reported in this line and compound potencies are consistent among three additional cancer cell lines. HeLa cells were also used for ectopic expression of tubulin mutants due to the high degree of transfectability of this cell line. Cells were tested for mycoplasma contamination using the Mycoplasma Detection Kit-Quick Test (Cat: B39032, Lot: JW004).
The sulforhodamine B (SRB) assay was utilized to examine the antiproliferative and cytotoxic effects of the compounds (Skehan, P. et al. (1990) J. Natl. Cancer Inst. 82, 1107-1112; Vichai and Kirtikara (2006) Nat. Protoc. 1, 1112-1116). Approximately 2,000 cells per well (for SK-OV-3, HeLa and βIII-tubulin expressing HeLa) or 4,000 cells per well (for HCC1806 and HCC1937) were seeded in 96-well plates. For each biological replicate, cells were treated in triplicate with each concentration of compound or vehicle control for 48 h in a final volume of 200 μL. The plates were fixed with 10% trichloroacetic acid for protein precipitation of adherent cells and then washed with distilled water. 100 μL of SRB dye, which binds protein stoichiometrically, was added and then unbound dye removed with 1% acetic acid followed by the addition of 200 μL 10 mM Tris to solubilize the dye, which was quantified by absorbance at 560 nm. The percent growth of treated cells relative to the density at the time of drug addiction was calculated as compared to vehicle treated cells.

Row | Structure (SMILES) | GI50 [µM]
3 | CC(=O)O[C@H]1[C@H]2[C@@H]([C@@H](O)[C@@H](NC(=O)CCCn3cc(CCC(=O)NCCCC[C@@H](NC(=O)[C@H](Cc4ccc(O)cc4)NC(=O)[C@H](CO)NC(=O)[C@H](Cc4c[nH]c5ccccc45)NC(=O)[C@H](Cc4c[nH]cn4)NC(=O)[C@@H]4CCC(=O)N4)C(=O)N[C@@H](CC(C)C)C(=O)N[C@@H](CCCNC(=N)N)C(=O)N4CCC[C@H]4C(=O)NCC(N)=O)nn3)[C@H]3C[C@@H]4O[C@@H]4[C@H](OC(C)=O)[C@]23C)[C@@H]2[C@@H](O)[C@@H]3[C@H]([C@H](C)[C@H]4O[C@]45OC(=O)[C@@](C)(O)[C@]35C)[C@@]2(C)[C@H]1OC(C)=O [171B] | 2.6
4 | CC(=O)O[C@H]1[C@H]2[C@@H]([C@@H](O)[C@H](NC(=O)CCCN=[N+]=[N-])[C@H]3C[C@@H]4O[C@@H]4[C@H](OC(C)=O)[C@]23C)[C@@H]2[C@@H](O)[C@@H]3[C@H]([C@H](C)[C@H]4O[C@]45OC(=O)[C@@](C)(O)[C@]35C)[C@@]2(C)[C@H]1OC(C)=O [152D] | 0.12
5 | CC(=O)O[C@H]1[C@H]2[C@@H]([C@@H](O)[C@@H](NC(=O)CNC(=O)c3ccc4c(c3)C(=O)OC43c4ccc(OC(=O)C(C)(C)C)cc4Oc4cc(OC(=O)C(C)(C)C)ccc43)[C@H]3C[C@@H]4O[C@@H]4[C@H](OC(C)=O)[C@]23C)[C@@H]2[C@@H](O)[C@@H]3[C@H]([C@H](C)[C@H]4O[C@]45OC(=O)[C@@](C)(O)[C@]35C)[C@@]2(C)[C@H]1OC(C)=O [164E] | 0.74
6 | CC(=O)Oc1cc2c(cc1F)C1(OC(=O)c3cc(C(=O)NCCC(=O)N[C@@H]4[C@H](O)[C@H]5[C@@H]6[C@@H](O)[C@@H]7[C@H]([C@H](C)[C@H]8O[C@]89OC(=O)[C@@](C)(O)[C@]79C)[C@@]6(C)[C@@H](OC(C)=O)[C@@H](OC(C)=O)[C@@H]5[C@]5(C)[C@@H]4C[C@@H]4O[C@@H]4[C@@H]5OC(C)=O)ccc31)c1cc(F)c(OC(C)=O)cc1O2 [163E] | > 10
7 | CC(=O)O[C@H]1[C@H]2[C@@H]([C@@H](O)[C@@H](NC(=O)CCCn3cc(COc4ccc5c(c4)Oc4cc(O)ccc4C54OC(=O)c5ccccc54)nn3)[C@H]3C[C@@H]4O[C@@H]4[C@H](OC(C)=O)[C@]23C)[C@@H]2[C@@H](O)[C@@H]3[C@H]([C@H](C)[C@H]4O[C@]45OC(=O)[C@@](C)(O)[C@]35C)[C@@]2(C)[C@H]1OC(C)=O (some centres unmarked) [155G] | 8.4
8 | CC(=O)O[C@H]1[C@H]2[C@@H]([C@@H](O)[C@@H](NC(=O)CCCN=[N+]=[N-])[C@H]3C[C@@H]4O[C@@H]4[C@H](OC(C)=O)[C@]23C)[C@@H]2[C@@H](O)[C@@H]3[C@H]([C@H](C)[C@H]4O[C@]45OC(=O)[C@@](C)(O)[C@]35C)[C@@]2(C)[C@H]1OC(C)=O [152E] | 0.09
9 | CC(=O)O[C@H]1[C@H]2C([C@@H](O)[C@@H](NC(=O)c3ccc4c(c3)C(=O)OC43c4ccc(OC(=O)C(C)(C)C)cc4Oc4cc(OC(=O)C(C)(C)C)ccc43)[C@H]3C[C@@H]4O[C@@H]4[C@H](OC(C)=O)[C@@]32C)[C@@H]2[C@@H](O)[C@@H]3[C@H]([C@H](C)[C@H]4O[C@]45OC(=O)[C@@](C)(O)[C@]35C)[C@@]2(C)[C@H]1OC(C)=O (some centres unmarked) [164B] | 0.031
10 | CC(=O)O[C@H]1[C@H]2[C@@H]([C@@H](O)[C@@H](NC(=O)CCCCCCn3cc(COc4cc5c(cc4F)C4(OC(=O)c6ccccc64)c4cc(F)c(O)cc4O5)nn3)[C@H]3C[C@@H]4O[C@@H]4[C@H](OC(C)=O)[C@]23C)[C@@H]2[C@@H](O)[C@@H]3[C@H]([C@H](C)[C@H]4O[C@]45OC(=O)[C@@](C)(O)[C@]35C)[C@@]2(C)[C@H]1OC(C)=O (some centres unmarked) [158E] | > 10
11 | CC(=O)Oc1cc2c(cc1F)C1(OC(=O)c3cc(C(=O)NCc4cn(CCCC(=O)N[C@@H]5[C@H](O)[C@H]6[C@@H]7[C@@H](O)[C@@H]8[C@H]([C@H](C)[C@H]9O[C@]9%10OC(=O)[C@@](C)(O)[C@]8%10C)[C@@]7(C)[C@@H](OC(C)=O)[C@@H](OC(C)=O)[C@@H]6[C@]6(C)[C@@H]5C[C@@H]5O[C@@H]5[C@@H]6OC(C)=O)nn4)ccc31)c1cc(F)c(OC(C)=O)cc1O2 [154J] | > 10
12 | CC(=O)O[C@H]1[C@H]2[C@@H]([C@@H](O)[C@@H](NC(=O)CCCCCCn3cc(COc4ccc5c(c4)Oc4cc(O)ccc4C54OC(=O)c5ccccc54)nn3)[C@H]3C[C@@H]4O[C@@H]4[C@H](OC(C)=O)[C@]23C)[C@@H]2[C@@H](O)[C@@H]3[C@H]([C@H](C)[C@H]4O[C@]45OC(=O)[C@@](C)(O)[C@]35C)[C@@]2(C)[C@H]1OC(C)=O (some centres unmarked) [158F] | 6
13 | CC(=O)O[C@H]1[C@H]2[C@@H]([C@@H](O)[C@@H](NC(=O)CCCn3cc(COc4cc5c(cc4F)C4(OC(=O)c6ccccc64)c4cc(F)c(O)cc4O5)nn3)[C@H]3C[C@@H]4O[C@@H]4[C@H](OC(C)=O)[C@]23C)[C@@H]2[C@@H](O)[C@@H]3[C@H]([C@H](C)[C@H]4O[C@]45OC(=O)[C@@](C)(O)[C@]35C)[C@@]2(C)[C@H]1OC(C)=O (some centres unmarked) [155F] | 3.7
14 | CC(=O)O[C@H]1[C@H]2[C@@H]([C@@H](O)[C@@H](NC(=O)CCCn3cc(CNC(=O)c4ccc(-c5c6cc(F)c(=O)cc-6oc6cc(O)c(F)cc56)c(C(=O)O)c4)nn3)[C@H]3C[C@@H]4O[C@@H]4[C@H](OC(C)=O)[C@]23C)[C@@H]2[C@@H](O)[C@@H]3[C@H]([C@H](C)[C@H]4O[C@]45OC(=O)[C@@](C)(O)[C@]35C)[C@@]2(C)[C@H]1OC(C)=O [154B] | > 10
15 | CC(=O)Oc1ccc2c(c1)Oc1cc(OC(C)=O)ccc1C21OC(=O)c2cc(C(=O)NCCC(=O)N[C@@H]3[C@H](O)[C@H]4[C@@H]5[C@@H](O)[C@@H]6[C@H]([C@H](C)[C@H]7O[C@]78OC(=O)[C@@](C)(O)[C@]68C)[C@@]5(C)[C@@H](OC(C)=O)[C@@H](OC(C)=O)[C@@H]4[C@]4(C)[C@@H]3C[C@@H]3O[C@@H]3[C@@H]4OC(C)=O)ccc21 [162C] | 10
16 | CC(=O)O[C@H]1[C@H]2[C@@H]([C@@H](O)[C@@H](NC(=O)CCCn3cc(CNC(=O)CCCC[C@@H]4SC[C@@H]5NC(=O)N[C@@H]54)nn3)[C@H]3C[C@@H]4O[C@@H]4[C@H](OC(C)=O)[C@]23C)[C@@H]2[C@@H](O)[C@@H]3[C@H]([C@H](C)[C@H]4O[C@]45OC(=O)[C@@](C)(O)[C@]35C)[C@@]2(C)[C@H]1OC(C)=O [154C] | > 10
17 | CC(=O)O[C@H]1[C@H]2[C@@H]([C@@H](O)[C@@H](NC(=O)CCNC(=O)c3ccc4c(c3)C(=O)OC43c4ccc(OC(=O)C(C)(C)C)cc4Oc4cc(OC(=O)C(C)(C)C)ccc43)[C@H]3C[C@@H]4O[C@@H]4[C@H](OC(C)=O)[C@]23C)[C@@H]2[C@@H](O)[C@@H]3[C@H]([C@H](C)[C@H]4O[C@]45OC(=O)[C@@](C)(O)[C@]35C)[C@@]2(C)[C@H]1OC(C)=O [163D] | 2
